# Experimental data: a melting point compilation (Tetko et al.)
row,Compound,melting point [°C]
1,ClCC=Cc1ccccc1,-19
2,Sc1nccc(-c2ccco2)n1,200
3,Clc1c(Cl)c(Cl)c2c(c1Cl)OC(c1ccccc1)(c1ccccc1)O2,153
4,c1ccc(-c2cc[nH]n2)cc1,75 to 77
5,COc1ccc2nnc(-c3ccc(C(F)(F)F)cc3)n2n1,142
6,Cc1ccc(S(=O)(=O)c2coc(S(N)(=O)=O)c2)cc1,185
7,O=C1C=CC(=O)C(Cl)=C1,52 to 57
8,Cc1cc(C)c([N+](=O)[O-])c(F)c1,56
9,COC(=O)c1ccccc1-n1c(=S)[nH]c2ccccc2c1=O,255 to 257
10,CC(=O)c1ccc(N=C=S)cc1,82 to 85
11,Nc1cc(-c2ccco2)[nH]n1,126
12,Nc1cnn(-c2ccccc2)c(=O)c1Br,224
13,N#CCC=CCC#N,76
14,Fc1c(F)c(F)c(I)c(F)c1F,-29
15,CS(=O)(=O)Nc1ccccc1,93 to 97
16,Cc1cc(Cl)ccc1N=CN(C)C,35
17,CSc1nc2nc(C)cc(C)c2c(=O)[nH]1,242 to 244
18,COc1ccc(C(=O)c2ccc(OC)cc2)cc1,144
19,Cc1cc(CO)n(C)n1,52 to 54
20,c1ccc(NNc2ccccc2)cc1,131
21,CCOc1nc2ccccc2c(=O)n1N,97 to 98
22,N#CCc1nc2ccccc2s1,102
23,O=C(O)c1cccc(OOCl)c1,92

row,Compound,melting point [°C]
1,BrC/C=C/CBr,53.4
2,O=C(Cl)c1ccc(Br)cc1F,25
3,O=C(O)C(=O)CBr,79 to 82
4,Nc1cc(C(F)(F)F)ccc1Cl,10
5,C(=Nc1ccccc1)=Nc1ccccc1,169
6,CCOc1nc2ccccc2c(=O)[nH]1,178 to 179
7,CC1C=Cn2c(cc3ccccc3c2=O)C1 (stereo unspecified),89
8,O=C1NC(=O)C(=Cc2ccc(-c3ccccc3Br)o2)C(=O)N1,255
9,c1ccc2cc3c(ccc4cc5ccccc5cc43)cc2c1,257
10,Nc1nnc(-c2ccccc2)c(Nc2ccc(Br)cc2)n1,203
11,O=[N+]([O-])c1ccc(/C=C/c2ccc3c(c2)OCO3)c([N+](=O)[O-])c1,178 to 179
12,Fc1cc2c(cc1F)Oc1cc(Cl)c(Cl)cc1O2,223
13,C#CC(O)(c1ccccc1)c1ccccc1,47 to 48
14,O=C1C=CC(=O)N1c1cccnc1Cl,115 to 117
15,NS(=O)(=O)c1cc2c(cc1Cl)NCNS2(=O)=O,267
16,CCC(C)Cl (stereo unspecified),-140
17,Cc1cc(C)c(S(=O)(=O)n2ccnc2)c(C)c1,95 to 99
18,CC(=O)CC(c1ccco1)c1c(O)c2ccccc2oc1=O (stereo unspecified),124
19,Cc1nn(Cc2nnc(S)o2)c(C)c1Br,194 to 195
20,C#Cc1ccc2nccnc2c1,98
21,CCOP(=O)(NC(C)C)Oc1ccc(SC)c(C)c1 (stereo unspecified),49
22,BrC(Br)=C(Br)Br,56.5
23,O=P(OC(CCl)CCl)(OC(CCl)CCl)OC(CCl)CCl,27

row,Compound,melting point [°C]
1,COc1nsc(N)n1,172 to 173
2,CNC(=O)Sc1ccc(OS(C)(=O)=O)cc1,138
3,Cn1c(=O)c(C2=NNC(=O)C2=CNc2ncccn2)c(O)c2ccccc21,279
4,Nc1ncccc1Cl,61
5,Cc1cc([N+]([O-])=Nc2ccccc2)ccc1[N+]([O-])=Nc1ccccc1,100
6,O=C(Cl)c1cc2ccccc2o1,54 to 55
7,Brc1cccc(Br)c1Br,87.5
8,Nc1c(F)ccc(F)c1Cl,29
9,Clc1ccc(-c2cc(Cl)c(Cl)c(Cl)c2Cl)cc1,98
10,CC1C2Cc3ccc(O)cc3C1(C)CCN2CC1CC1 (stereo unspecified),202
11,Cc1nc(=O)c2ccccc2[nH]1,232
12,COc1ccc(C=O)cc1O,114
13,CCOC(=O)C1=C(NC(=O)c2ccco2)Oc2c(c(=O)oc3ccccc23)C1c1ccc(Br)cc1 (stereo unspecified),140
14,Fc1cc(Cl)cc(CBr)c1,25 to 30
15,CC(C=Cc1ccccc1)=NO,116 to 120
16,O=C1c2ccccc2C(=O)c2c1ccc1ccccc21,170
17,O=C(C=Nc1ccccc1)c1ccc(C(=O)C=Nc2ccccc2)cc1,155
18,O=[N+]([O-])c1ccc2ncccc2c1,154
19,Nc1ncc(Br)cc1Br,104
20,ClCc1noc(-c2ccccc2)n1,64
21,Nc1cc([N+](=O)[O-])ccc1F,101
22,CCC(Br)=CBr,-49.5

# The next lines start with the values.
row,melting point [°C],Compound
1,56,C/C=C/C(=O)N1C(=O)OC[C@@H]1C(C)C
2,282 to 283,O=C(O)c1ccc(-c2ccsc2)cc1
3,121,O=C(C1=NOC2C(=O)N(c3ccc(Cl)cc3)C(=O)C12)c1ccc2ccccc2c1 (stereo unspecified)
4,191,NCCCCCCCCCCC(=O)O
5,105 to 116,Cc1c(C)c2c(c3c1CC3)CC2
6,74 to 76,O=C1CCC2(CC1)OCCO2
7,92,CC1CCC(C)(C(=O)NNc2ccccc2)C1(C)C (stereo unspecified)
8,174,CCOC(=O)C(=Cc1cc(N)cc(C=C(C(=O)OCC)C(=O)OCC)c1)C(=O)OCC
9,200 to 205,O=C(O)c1ccccc1C(=O)O
10,58 to 60,COc1ccc(C(=O)CCCCl)c(OC)c1
11,152 to 154,CCCCCCCCOc1ccc(NC(=O)c2ccc(OC)cc2)cc1
12,45.5,CC1CCC(C(C)C)C(OC(=O)C(=O)C=Cc2ccccc2)C1 (stereo unspecified)
13,97,CCC(C=O)(CC)CCC#N
14,80,CC(C)CCCC(C)C1CCC2C3CC=C4C=CCCC4(C)C3CCC12C (stereo unspecified)
15,323,CC(=O)OC1CCC2(C)C(CCC3(C)C2C(=O)C=C2C4CC(C)(C(=O)O)CCC4(C)CCC23C)C1(C)C (stereo unspecified)
16,165 to 170,CC(=O)NNC(N)=S
17,148 to 150,O=C(O)C1CC(=O)N(CCc2ccc(Cl)cc2)C1 (stereo unspecified)
18,301 to 303,CC(=O)c1c(C)n(O)c2ccc3nonc3c12
19,205,O=C(O)C=Cc1cc(F)cc(F)c1
20,246,COC(=O)C(Cc1ccccc1)NC(=O)C(N)CC(=O)O (stereo unspecified)
21,106,CCCCCCCCCCCCCC(=O)Oc1ccc(N=Cc2ccc(N(C)C)cc2)cc1

row,melting point [°C],Compound
1,31,O=C(O)CCCC1CCCCC1
2,185,CC(C=CC1=C(C)CCCC1(C)C)=CC=CC(C)=CC(=O)O
3,211 to 213,C/C(=N/NC(N)=S)C(=O)Nc1ccccc1
4,235,c1cc2cc3ccc4c(c3nc2c2c1NCOC2)COCN4
5,46,CC(C)(C)OC(=O)N1CCC(N)CC1
6,131,CCN(CC)C(=O)C1CN2CCc3cc(OC)c(OC)cc3C2CC1OC(C)=O (stereo unspecified)
7,212,COc1ccc(C=CC(=O)Nc2ccccc2C(=O)O)cc1OC
8,68 to 69,OCc1scc2c1OCCO2
9,219,O=C(O)c1ccc(-n2nc(C(=O)c3cccs3)s/c2=N\C(=O)c2ccccc2)cc1
10,102,CCCOc1ccc([N+](=O)[O-])cc1NC(C)=O
11,156,O=C1CCC(=O)N1c1ccccc1
12,142,O=C(c1ccccc1)N(CC(=Nc1ccccc1)Nc1ccccc1)c1ccccc1
13,169,CC(=O)Nc1ccc(C(C)=O)cc1
14,180 to 182,O=C(O)c1cc(F)cc2c1OCOC2
15,38,CC(=O)c1cc(Cl)sc1Cl
16,156 to 158,CSc1nc(N)nc(N2CCCCC2)n1
17,181 to 184,Cc1ccc(C2(C(=O)O)CCCC2)cc1
18,129 to 132,NC(=O)C1(N2CCCCC2)CCNCC1
19,187,CC(C)(C(N)=O)n1nnc2ccccc21
20,309,CC(=O)OCC(=O)C12OC(C)(C)OC1CC1C3CC(F)C4=CC(=O)C=CC4(C)C3(F)C(O)CC12C (stereo unspecified)
21,132,COc1cc(CCn2cccc2C(=O)O)cc(OC)c1OC

row,melting point [°C],Compound
1,156,O=C1CCCC(=O)N1
2,136 to 138,Oc1cccc(N2CCOCC2)c1
3,92 to 94,O=C(c1ccccc1)c1cccc([N+](=O)[O-])c1
4,226 to 228,COc1cc(Br)cc2cc(C(=O)O)c(=O)oc12
5,223,Cc1onc(-c2c(Cl)cccc2Cl)c1C(=O)O
6,99 to 101,CCCCCCCCCCCCCC=CC(O)C(CO)NC(=O)CCCCCCCCCCCCCCCCC (stereo unspecified)
7,186,O=C(O)c1cccc(-c2ccccc2)c1O
8,96,O=c1ccc([N+](=O)[O-])cn1Cc1ccccc1
9,1,CC(C)OC(=O)[C@H](C)O
10,145,O=C(N[C@H](Cc1ccccc1F)C(=O)O)OCC1c2ccccc2-c2ccccc21
11,132 to 134,COC(=O)c1cnc(NN)nc1C(F)(F)F
12,75 to 77,Cc1cc(C(=O)CC#N)c(C(F)(F)F)o1
13,102 to 104,CC(=O)N1CCc2ccccc21
14,125,Cc1cccc(NC(=O)c2ccccc2)c1
15,93 to 96,O=C(O)C=Cc1cccc(OC(F)(F)F)c1
16,256 to 257,O=C(O)c1ccc(N2CCOCC2)nc1
17,212,CCCCC(=O)OC1(C(=O)CO)CCC2C3CCC4=CC(=O)C=CC4(C)C3C(O)CC21C (stereo unspecified)
18,90,CCN(CCO)CCCC(C)Nc1ccnc2cc(Cl)ccc12 (stereo unspecified)
19,138 to 140,O=C(NCc1ccc(S(=O)(=O)Cl)s1)c1ccc(Cl)cc1
20,94,C=Cc1ccccc1C(=O)O
21,238 to 243,CCCCSCCC(N)C(=O)O (racemic)
